Holding throughout (assay): Eurofins kinase profiling
Common to all, as to type: biochemical

The target of assay [1] is T1, Pyk2(h) (Homo sapiens, UniProt Q14289).
T1 construct: purchased Eurofins KinaseProfiler
To be noted: read-out: residual kinase activity Pyk2(h). In short, it runs like this: (§1)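 Panel of 110 assays under standard conditions; these protein kinases were tested in the radiometric KinaseProfiler assay at a single 1 µM compound concentration.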

Assay [2] addresses T2, ARK5(h) (Homo sapiens, UniProt O60285).
T2 construct: purchased Eurofins KinaseProfiler
T2 sequence (O60285 1-661): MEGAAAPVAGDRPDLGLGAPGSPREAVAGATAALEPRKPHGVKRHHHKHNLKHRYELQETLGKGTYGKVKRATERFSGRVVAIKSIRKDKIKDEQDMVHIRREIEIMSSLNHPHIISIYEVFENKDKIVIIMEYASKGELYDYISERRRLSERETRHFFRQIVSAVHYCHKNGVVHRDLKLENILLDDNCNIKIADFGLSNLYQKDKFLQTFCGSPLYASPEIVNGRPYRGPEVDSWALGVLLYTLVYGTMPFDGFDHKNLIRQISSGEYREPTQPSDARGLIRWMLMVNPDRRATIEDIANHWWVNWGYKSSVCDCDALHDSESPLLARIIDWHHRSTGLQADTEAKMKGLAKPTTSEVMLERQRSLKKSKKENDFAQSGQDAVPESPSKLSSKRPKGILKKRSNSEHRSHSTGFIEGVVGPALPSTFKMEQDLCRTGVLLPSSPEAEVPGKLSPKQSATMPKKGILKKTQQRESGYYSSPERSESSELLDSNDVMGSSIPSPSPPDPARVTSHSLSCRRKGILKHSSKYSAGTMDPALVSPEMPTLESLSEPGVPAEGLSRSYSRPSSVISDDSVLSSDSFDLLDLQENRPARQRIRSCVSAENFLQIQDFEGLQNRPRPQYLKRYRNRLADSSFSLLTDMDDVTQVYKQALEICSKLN
To be noted: read-out: residual kinase activity ARK5(h). In short, it runs like this:
as §1

The target in assay [3] is T3, PDK1(h) (Homo sapiens, UniProt O15530).
T3 construct: purchased Eurofins KinaseProfiler
T3 sequence (O15530 1-556): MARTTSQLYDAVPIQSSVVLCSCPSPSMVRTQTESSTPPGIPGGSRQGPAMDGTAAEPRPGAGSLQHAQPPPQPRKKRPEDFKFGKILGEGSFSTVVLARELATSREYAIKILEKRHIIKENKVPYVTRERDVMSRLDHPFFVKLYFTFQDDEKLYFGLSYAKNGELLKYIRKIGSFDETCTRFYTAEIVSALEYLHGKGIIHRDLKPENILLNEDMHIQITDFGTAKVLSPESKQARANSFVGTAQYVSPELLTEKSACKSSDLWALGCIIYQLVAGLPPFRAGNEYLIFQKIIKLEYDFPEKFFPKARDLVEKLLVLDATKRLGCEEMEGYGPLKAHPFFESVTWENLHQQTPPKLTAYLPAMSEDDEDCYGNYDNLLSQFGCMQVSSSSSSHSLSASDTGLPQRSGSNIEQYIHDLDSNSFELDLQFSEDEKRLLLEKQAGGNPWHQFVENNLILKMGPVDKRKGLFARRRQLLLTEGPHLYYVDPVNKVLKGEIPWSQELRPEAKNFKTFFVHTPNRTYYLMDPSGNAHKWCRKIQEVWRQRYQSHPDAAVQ
To be noted: read-out: residual kinase activity PDK1(h). In short, it runs like this:
as §1

Assay [4] deals with T4, FGFR4(h) (Homo sapiens, UniProt P22455).
T4 construct: purchased Eurofins KinaseProfiler
Particulars: read-out: residual kinase activity FGFR4(h). The procedure, abridged:
as §1

Assay [5] addresses T5, HIPK2(h) (Homo sapiens, UniProt Q9H2X6).
T5 construct: purchased Eurofins KinaseProfiler
To be noted: read-out: residual kinase activity HIPK2(h). In short, it runs like this: as §1

Assay [6] addresses T6, PDGFRα(h) (Homo sapiens, UniProt P16234).
T6 construct: purchased Eurofins KinaseProfiler
To be noted: read-out: residual kinase activity PDGFRα(h). In short, it runs like this: as §1

Assay [7] addresses T7, Abl(T315I)(h) (Homo sapiens, UniProt P00519, T315I).
T7 construct: purchased Eurofins KinaseProfiler
Particulars: read-out: residual kinase activity Abl(T315I)(h). The procedure, abridged:
as §1

Assay [8] concerns the target T8, TAK1(h) (Homo sapiens, UniProt O43318).
T8 construct: purchased Eurofins KinaseProfiler
T8 sequence (O43318 1-303 limits assumed): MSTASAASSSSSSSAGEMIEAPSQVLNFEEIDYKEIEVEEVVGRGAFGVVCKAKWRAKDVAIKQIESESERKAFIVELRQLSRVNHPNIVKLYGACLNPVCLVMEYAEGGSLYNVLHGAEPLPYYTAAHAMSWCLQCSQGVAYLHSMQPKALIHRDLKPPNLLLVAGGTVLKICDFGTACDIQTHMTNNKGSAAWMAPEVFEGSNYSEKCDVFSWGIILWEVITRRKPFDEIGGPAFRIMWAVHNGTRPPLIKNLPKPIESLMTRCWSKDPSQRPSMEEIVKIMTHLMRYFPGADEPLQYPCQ
To be noted: read-out: residual kinase activity TAK1(h). In short, it runs like this: as §1

For assay [9], the target named is T9, DYRK2(h) (Homo sapiens, UniProt Q92630).
T9 construct: purchased Eurofins KinaseProfiler
T9 sequence (Q92630 1-601): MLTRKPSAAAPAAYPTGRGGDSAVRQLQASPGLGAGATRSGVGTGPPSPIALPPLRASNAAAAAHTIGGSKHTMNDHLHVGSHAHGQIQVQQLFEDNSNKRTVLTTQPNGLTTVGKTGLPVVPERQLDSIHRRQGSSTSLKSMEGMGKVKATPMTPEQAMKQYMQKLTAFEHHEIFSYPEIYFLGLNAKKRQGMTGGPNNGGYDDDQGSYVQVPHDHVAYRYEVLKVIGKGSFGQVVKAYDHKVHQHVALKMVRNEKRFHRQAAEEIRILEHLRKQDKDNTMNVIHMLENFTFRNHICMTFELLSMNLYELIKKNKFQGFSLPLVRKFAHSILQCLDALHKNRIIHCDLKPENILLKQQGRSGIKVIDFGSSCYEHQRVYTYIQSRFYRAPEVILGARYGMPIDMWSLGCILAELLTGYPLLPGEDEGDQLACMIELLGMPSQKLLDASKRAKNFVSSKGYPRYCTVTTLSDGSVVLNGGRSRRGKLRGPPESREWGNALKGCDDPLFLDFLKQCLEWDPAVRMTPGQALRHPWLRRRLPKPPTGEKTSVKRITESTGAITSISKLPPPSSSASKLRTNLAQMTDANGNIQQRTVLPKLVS
Particulars: read-out: residual kinase activity DYRK2(h). The procedure, abridged:
as §1

For assay [10], the target named is T10, PAK1(h) (Homo sapiens, UniProt Q13153).
T10 construct: purchased Eurofins KinaseProfiler
Particulars: read-out: residual kinase activity PAK1(h). The procedure, abridged: as §1

The record followed here is publication PMC10528299, “Targeting FAK/PYK2 with SJP1602 for Anti-Tumor Activity in Triple-Negative Breast Cancer” (Current Issues in Molecular Biology, 2023).

Each structure is given as a SMILES string.

T6 sequence (P16234 24-1089): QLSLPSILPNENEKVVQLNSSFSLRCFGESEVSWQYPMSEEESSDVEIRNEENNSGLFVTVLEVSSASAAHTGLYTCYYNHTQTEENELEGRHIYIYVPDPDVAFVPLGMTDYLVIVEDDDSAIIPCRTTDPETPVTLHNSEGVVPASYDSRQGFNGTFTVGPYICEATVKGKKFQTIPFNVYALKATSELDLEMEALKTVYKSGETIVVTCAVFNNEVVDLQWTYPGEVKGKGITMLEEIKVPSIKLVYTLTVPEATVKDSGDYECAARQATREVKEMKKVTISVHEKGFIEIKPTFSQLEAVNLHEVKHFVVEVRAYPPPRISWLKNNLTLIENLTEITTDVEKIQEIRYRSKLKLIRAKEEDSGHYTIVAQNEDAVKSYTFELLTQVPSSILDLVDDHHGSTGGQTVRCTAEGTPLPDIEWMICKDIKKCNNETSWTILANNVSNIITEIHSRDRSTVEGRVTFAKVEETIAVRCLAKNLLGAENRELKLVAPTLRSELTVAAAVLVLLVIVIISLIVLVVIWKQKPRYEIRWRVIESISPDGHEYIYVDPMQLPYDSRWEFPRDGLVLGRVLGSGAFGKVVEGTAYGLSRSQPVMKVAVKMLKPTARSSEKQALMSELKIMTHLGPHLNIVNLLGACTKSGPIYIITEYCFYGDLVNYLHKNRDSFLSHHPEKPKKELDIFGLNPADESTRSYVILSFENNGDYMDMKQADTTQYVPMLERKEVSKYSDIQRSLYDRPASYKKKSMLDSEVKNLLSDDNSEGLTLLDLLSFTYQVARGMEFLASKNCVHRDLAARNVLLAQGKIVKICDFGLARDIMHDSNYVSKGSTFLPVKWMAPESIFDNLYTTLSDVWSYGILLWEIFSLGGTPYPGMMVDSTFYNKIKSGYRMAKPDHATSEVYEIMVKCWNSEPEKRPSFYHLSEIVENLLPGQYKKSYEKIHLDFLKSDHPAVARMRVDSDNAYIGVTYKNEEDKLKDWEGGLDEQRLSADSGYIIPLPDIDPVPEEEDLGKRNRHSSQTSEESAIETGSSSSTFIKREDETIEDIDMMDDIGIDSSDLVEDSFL
T4 sequence (P22455 22-802): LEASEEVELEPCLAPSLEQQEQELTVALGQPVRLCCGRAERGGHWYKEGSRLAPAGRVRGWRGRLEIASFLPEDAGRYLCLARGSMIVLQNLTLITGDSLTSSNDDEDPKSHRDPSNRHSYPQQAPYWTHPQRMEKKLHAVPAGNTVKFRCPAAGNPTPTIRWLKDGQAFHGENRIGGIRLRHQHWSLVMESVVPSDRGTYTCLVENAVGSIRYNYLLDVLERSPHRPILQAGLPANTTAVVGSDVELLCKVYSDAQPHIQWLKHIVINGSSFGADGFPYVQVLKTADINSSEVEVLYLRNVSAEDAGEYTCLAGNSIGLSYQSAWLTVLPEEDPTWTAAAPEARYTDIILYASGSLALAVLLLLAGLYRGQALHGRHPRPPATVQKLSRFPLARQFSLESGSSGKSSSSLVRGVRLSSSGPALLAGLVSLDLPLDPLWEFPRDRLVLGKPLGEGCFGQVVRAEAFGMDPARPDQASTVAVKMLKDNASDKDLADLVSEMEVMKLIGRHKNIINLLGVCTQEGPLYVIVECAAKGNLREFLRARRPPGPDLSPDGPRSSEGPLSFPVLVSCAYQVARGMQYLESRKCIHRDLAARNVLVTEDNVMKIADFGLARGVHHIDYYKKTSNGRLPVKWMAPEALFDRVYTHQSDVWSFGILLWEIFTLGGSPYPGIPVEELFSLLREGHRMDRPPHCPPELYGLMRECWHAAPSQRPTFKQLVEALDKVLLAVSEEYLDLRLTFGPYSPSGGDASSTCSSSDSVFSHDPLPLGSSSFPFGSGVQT
T5 sequence (Q9H2X6 whole entry): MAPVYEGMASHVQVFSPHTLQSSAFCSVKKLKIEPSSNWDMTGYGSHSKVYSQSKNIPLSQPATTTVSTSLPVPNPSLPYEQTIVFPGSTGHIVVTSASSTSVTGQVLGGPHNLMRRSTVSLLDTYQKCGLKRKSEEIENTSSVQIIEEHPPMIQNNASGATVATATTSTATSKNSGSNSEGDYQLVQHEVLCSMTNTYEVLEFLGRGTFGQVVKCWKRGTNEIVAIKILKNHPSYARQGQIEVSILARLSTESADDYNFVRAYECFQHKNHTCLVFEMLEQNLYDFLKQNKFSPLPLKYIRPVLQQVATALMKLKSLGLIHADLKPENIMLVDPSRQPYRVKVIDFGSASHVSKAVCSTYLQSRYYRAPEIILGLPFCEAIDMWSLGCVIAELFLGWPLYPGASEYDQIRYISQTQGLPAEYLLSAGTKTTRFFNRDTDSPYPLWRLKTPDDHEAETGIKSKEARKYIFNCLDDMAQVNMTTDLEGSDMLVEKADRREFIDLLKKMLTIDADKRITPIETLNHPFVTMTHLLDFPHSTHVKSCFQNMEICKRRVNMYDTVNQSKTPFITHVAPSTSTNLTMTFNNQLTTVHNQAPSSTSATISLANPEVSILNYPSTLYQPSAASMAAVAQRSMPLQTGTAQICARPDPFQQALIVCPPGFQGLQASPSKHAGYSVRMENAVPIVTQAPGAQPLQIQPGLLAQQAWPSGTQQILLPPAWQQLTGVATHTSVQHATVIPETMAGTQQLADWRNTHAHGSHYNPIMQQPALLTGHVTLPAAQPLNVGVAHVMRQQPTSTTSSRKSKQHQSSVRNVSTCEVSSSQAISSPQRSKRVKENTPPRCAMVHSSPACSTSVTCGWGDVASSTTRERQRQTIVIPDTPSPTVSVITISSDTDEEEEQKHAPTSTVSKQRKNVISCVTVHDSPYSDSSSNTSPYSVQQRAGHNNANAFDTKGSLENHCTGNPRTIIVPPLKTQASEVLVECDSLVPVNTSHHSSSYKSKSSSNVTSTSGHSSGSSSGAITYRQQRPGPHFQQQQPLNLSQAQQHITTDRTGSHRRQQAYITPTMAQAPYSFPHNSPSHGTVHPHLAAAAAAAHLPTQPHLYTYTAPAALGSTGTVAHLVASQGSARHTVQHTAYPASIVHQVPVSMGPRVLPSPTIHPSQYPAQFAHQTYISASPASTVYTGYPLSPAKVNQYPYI
T1 sequence (Q14289 whole entry): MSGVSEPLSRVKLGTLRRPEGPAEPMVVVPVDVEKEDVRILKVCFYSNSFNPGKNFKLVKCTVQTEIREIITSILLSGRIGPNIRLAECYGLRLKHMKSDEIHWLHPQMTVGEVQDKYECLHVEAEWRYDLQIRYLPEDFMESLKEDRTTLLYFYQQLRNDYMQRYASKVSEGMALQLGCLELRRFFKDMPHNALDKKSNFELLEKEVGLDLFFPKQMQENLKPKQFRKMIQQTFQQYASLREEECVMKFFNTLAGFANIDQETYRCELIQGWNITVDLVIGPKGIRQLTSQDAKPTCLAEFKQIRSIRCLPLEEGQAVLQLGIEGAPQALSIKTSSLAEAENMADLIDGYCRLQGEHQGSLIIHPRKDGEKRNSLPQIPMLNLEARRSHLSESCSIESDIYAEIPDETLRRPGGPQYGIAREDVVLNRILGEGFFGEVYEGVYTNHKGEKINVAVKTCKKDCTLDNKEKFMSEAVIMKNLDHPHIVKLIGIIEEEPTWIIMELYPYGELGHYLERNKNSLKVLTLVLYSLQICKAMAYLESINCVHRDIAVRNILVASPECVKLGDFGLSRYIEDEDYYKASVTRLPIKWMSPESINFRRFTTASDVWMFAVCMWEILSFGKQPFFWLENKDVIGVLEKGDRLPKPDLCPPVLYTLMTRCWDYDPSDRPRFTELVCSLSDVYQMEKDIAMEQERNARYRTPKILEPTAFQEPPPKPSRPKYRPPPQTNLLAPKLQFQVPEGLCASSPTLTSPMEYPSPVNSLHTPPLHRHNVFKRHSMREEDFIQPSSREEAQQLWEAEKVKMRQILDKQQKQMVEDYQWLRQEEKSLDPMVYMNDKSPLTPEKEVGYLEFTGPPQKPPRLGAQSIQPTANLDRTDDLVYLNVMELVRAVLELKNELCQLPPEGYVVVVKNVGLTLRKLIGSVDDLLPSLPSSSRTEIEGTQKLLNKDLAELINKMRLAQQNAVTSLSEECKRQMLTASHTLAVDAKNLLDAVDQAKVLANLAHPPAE
T10 sequence (Q13153 whole entry): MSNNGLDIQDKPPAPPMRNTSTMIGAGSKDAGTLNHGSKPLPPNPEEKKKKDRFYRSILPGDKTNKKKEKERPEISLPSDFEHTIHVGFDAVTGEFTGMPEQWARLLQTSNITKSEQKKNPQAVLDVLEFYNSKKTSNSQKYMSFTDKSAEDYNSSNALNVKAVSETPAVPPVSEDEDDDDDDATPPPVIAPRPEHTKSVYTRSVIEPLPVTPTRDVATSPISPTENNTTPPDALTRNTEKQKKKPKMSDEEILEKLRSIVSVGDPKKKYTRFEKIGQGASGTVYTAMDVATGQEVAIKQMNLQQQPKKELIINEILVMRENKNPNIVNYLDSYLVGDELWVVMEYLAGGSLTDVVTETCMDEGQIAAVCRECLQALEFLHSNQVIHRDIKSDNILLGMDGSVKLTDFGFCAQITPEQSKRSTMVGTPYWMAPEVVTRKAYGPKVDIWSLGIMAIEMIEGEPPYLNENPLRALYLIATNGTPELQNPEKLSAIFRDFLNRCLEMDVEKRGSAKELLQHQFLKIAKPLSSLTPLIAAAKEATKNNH

Take `CONC(=O)c1ccccc1Nc1cc(Nc2cc(C)nn2C(C)C)ncc1Cl` [GSK2256098]: the remaining activity at 1 µM turned out to be 60% in assay [1]; 92% in [2]; 117% in assay [3]; 104% in [4]; 94% in [5]; 101% in [6]. The remaining activity at 1 µM in assay [7] is 92%; in assay [8], 95%; in assay [9], 52%; in [10], 91%.
With `CNC(=O)c1cccc(C)c1Nc1nc(Nc2ccc(N3CCN(C4C5CC6CC4CC(O)(C6)C5)CC3)cc2OC)ncc1C(F)(F)F` (stereo not drawn) [SJP1602, 2-((2-((4-(4-((2s,5r)-5-hydroxyadamantan-2-yl)piperazin-1-yl)-2-methoxyphenyl)amino)-5-(trifluoromethyl)pyrimidin-4-yl)amino)-N,3-dimethylbenzamide], the remaining activity at 1 µM in assay [1] was determined as 4%; in [2], 90%; in assay [3], 102%; in [4] it was 102%; in assay [5], 100%; in assay [6] it was 97%. Further, the remaining activity at 1 µM in assay [7] is 106%; in [8], 113%; in assay [9], 97%; in [10] it was 119%.
Take `CNC(=O)c1ccc(Nc2ncc(C(F)(F)F)c(NCc3nccnc3N(C)S(C)(=O)=O)n2)cc1` [VS-6063, Defactinib]: the remaining activity at 1 µM turned out to be 6% in assay [1]; 21% in [2]; 66% in [3]; 104% in assay [4]; 16% in assay [5]; 79% in [6]. Also, the remaining activity at 1 µM in [7] worked out at 44%; in assay [8] it was 71%; in assay [9], 80%; in assay [10] it was 79%.
